Measurements from the supplement of paper PMC10307832.

What was measured:
Assay in all cases: relative viability (nuclei count vs DMSO), 5 days (fraction); higher = more cells survive
[1] = compound: Nc1ncn([C@H]2C[C@H](O)[C@@H](CO)O2)c(=O)n1 [Decitabine] + CC1(C)CCC(c2ccc(Cl)cc2)=C(CN2CCN(c3ccc(C(=O)NS(=O)(=O)c4ccc(N[C@H](CCN5CCOCC5)CSc5ccccc5)c(S(=O)(=O)C(F)(F)F)c4)cc3)CC2)C1 [Navitoclax] (partner 0.5 µM)
How it was run: (§1)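 The day after seeding in 1536-well plates, lung cancer cell lines were treated by pin tool with a single drug, or with a fixed anchor-drug dose together with five library-drug doses (not always all listed) in √10 steps. After 5 days, a combined fix-and-stain solution (final 0.05% Triton X-100, 1% formaldehyde, 1 ug/ml Hoechst) was added. Nuclei counted on 4× images gave relative viability as treated counts over vehicle counts, reported as the median of duplicate plates.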

[2] = compound: COc1cc2c(Oc3ccc4[nH]c(C)cc4c3F)ncnc2cc1OCCCN1CCCC1 [Cediranib] + Nc1ncn([C@H]2C[C@H](O)[C@@H](CO)O2)c(=O)n1 [Decitabine] (partner 2 µM)
How it was run: as §1

[3] = compound: O=C(C[C@H]1NCCC[C@@H]1O)Cn1cnc2cc(Br)c(Cl)cc2c1=O (racemic) [Halofuginone] + COc1cccc2cc(-c3nc([C@H]4CC[C@H](C(=O)O)CC4)n4ncnc(N)c34)[nH]c12 [OSI-027] (partner 0.5 µM)
How it was run: as §1

[4] = compound: Nc1ncn([C@H]2C[C@H](O)[C@@H](CO)O2)c(=O)n1 [Decitabine] + COc1cc2c(Oc3ccc(NC(=O)C4(C(=O)Nc5ccc(F)cc5)CC4)cc3F)ccnc2cc1OCCCN1CCOCC1 [Foretinib] (partner 0.25 µM)
How it was run: as §1

Row | Cell Line | relative viability ([1]; first compound 0.04 µM) | relative viability ([1]; first compound 0.1265 µM) | relative viability ([1]; first compound 0.4 µM) | relative viability ([1]; first compound 1.265 µM) | relative viability ([1]; first compound 4 µM) | relative viability ([2]; first compound 0.04 µM) | relative viability ([2]; first compound 0.1265 µM) | relative viability ([2]; first compound 0.4 µM) | relative viability ([2]; first compound 1.265 µM) | relative viability ([2]; first compound 4 µM) | relative viability ([3]; first compound 0.001 µM) | relative viability ([3]; first compound 0.003162 µM) | relative viability ([3]; first compound 0.01 µM) | relative viability ([3]; first compound 0.03162 µM) | relative viability ([3]; first compound 0.1 µM) | relative viability ([4]; first compound 0.04 µM) | relative viability ([4]; first compound 0.1265 µM) | relative viability ([4]; first compound 0.4 µM) | relative viability ([4]; first compound 1.265 µM) | relative viability ([4]; first compound 4 µM)
1 | HCC-44 | 0.78 | 0.74 | 0.362 | 0.408 | 0.425 | 0.932 | 0.629 | 0.93 | 0.934 | 0.958 | 0.505 | 0.613 | 0.444 | 0.379 | 0.202 | – | – | – | – | –
2 | HARA | 0.9 | 0.66 | 0.568 | 0.512 | 0.399 | 0.595 | 0.593 | 0.517 | 0.782 | 0.582 | 0.68 | 0.631 | 0.536 | 0.566 | 0.399 | 0.641 | 0.558 | 0.387 | 0.215 | 0.165
3 | 201T | 1.16 | 1.14 | 1.27 | 1.13 | 1.1 | 0.876 | 0.89 | 0.889 | 0.868 | 0.878 | 0.755 | 0.775 | 0.713 | 0.474 | 0.256 | 1.18 | 1.35 | 1.02 | 0.744 | 0.727
4 | NCI-H2228 | 0.667 | 0.525 | 0.264 | 0.337 | 0.21 | – | – | – | – | – | 0.741 | 0.647 | 0.465 | 0.371 | 0.198 | 0.593 | 0.532 | 0.352 | 0.273 | 0.207
5 | NCI-H358 | – | – | – | – | – | 0.214 | 0.256 | 0.215 | 0.186 | 0.213 | 0.972 | 0.836 | 0.664 | 0.267 | 0.107 | 0.53 | 0.406 | 0.274 | 0.142 | 0.136
6 | NCI-H1792 | 0.6 | 0.672 | 0.625 | 0.454 | 0.304 | – | 0.503 | 0.48 | 0.501 | 0.715 | 0.71 | 0.749 | 0.801 | 0.737 | 0.592 | – | – | – | – | –
7 | NCI-H650 | – | – | – | – | – | 0.315 | 0.271 | 0.302 | 0.302 | 0.348 | 0.531 | 0.59 | 0.506 | 0.492 | 0.533 | 0.929 | 0.667 | 0.506 | 0.363 | 0.319
8 | Calu-6 | 0.6 | 0.457 | 0.302 | 0.277 | 0.207 | – | – | – | – | – | – | – | – | – | – | 0.698 | 0.525 | 0.275 | 0.243 | 0.217
9 | CAL-12T | 1.02 | 0.867 | 0.752 | 0.627 | 0.497 | – | – | – | – | – | 0.872 | 0.771 | 0.707 | 0.807 | 0.414 | 1.08 | 0.883 | – | 0.618 | 0.419
10 | LCLC-103H | – | – | – | – | – | 0.789 | 0.815 | 0.781 | 0.731 | 0.761 | 0.474 | 0.447 | 0.446 | 0.428 | 0.451 | 0.945 | 0.807 | 0.717 | 0.636 | 0.519
11 | NCI-H1623 | – | – | – | – | – | – | – | – | – | – | 0.536 | 0.455 | 0.436 | 0.517 | 0.423 | 0.706 | 0.822 | 0.657 | 0.53 | 0.549
12 | NCI-H1299 | 1.04 | 1.03 | 1.02 | 0.898 | 0.848 | – | – | – | – | – | – | – | – | – | – | 1.09 | 1.13 | 1.03 | 1.03 | 1.01
13 | NCI-H1703 | 0.845 | 0.642 | 0.255 | 0.189 | 0.253 | – | – | – | – | – | – | – | – | – | – | 0.371 | 0.341 | 0.455 | 0.377 | 0.271
14 | NCI-H522 | – | – | – | – | – | 0.702 | 0.746 | 0.76 | 0.661 | 0.656 | 0.734 | 0.707 | 0.721 | 0.689 | 0.605 | – | – | – | – | –
15 | ABC-1 | – | – | – | – | – | 0.866 | 1.11 | 1.19 | 1.05 | 1.04 | 0.413 | 0.454 | 0.504 | 0.601 | 0.417 | 0.979 | 0.912 | 0.763 | 0.839 | 0.67
16 | IA-LM | 0.415 | 0.313 | 0.156 | 0.162 | 0.169 | – | – | – | – | – | – | – | – | – | – | 0.543 | 0.502 | 0.282 | 0.204 | 0.108
17 | SW 900 | – | – | – | – | – | 0.45 | 0.421 | 0.425 | 0.444 | 0.53 | 0.68 | 0.628 | 0.518 | 0.494 | 0.293 | 0.489 | 0.305 | 0.206 | 0.167 | 0.202
18 | NCI-H1563 | – | – | – | – | – | – | – | – | – | – | 0.859 | 0.735 | 0.837 | 0.612 | 0.527 | 0.984 | 0.886 | 1.14 | 0.949 | 0.917
19 | NCI-H2342 | – | – | – | – | – | 0.83 | 0.827 | 0.732 | 0.74 | 0.812 | 0.565 | 0.622 | 0.574 | 0.7 | 0.618 | 1.29 | 1.03 | 1.1 | 0.674 | 0.568
